Source: patent US20240299360A1, “ADAMTS INHIBITORS, PREPARATION METHODS AND MEDICINAL USES THEREOF” (Jiangsu Hengrui Pharmaceuticals Co., Ltd., priority 2020, published 2024)

How the values were obtained:
Type in all cases: biochemical
[1] = molecular target: ADAMTS-4 recombinant protein (Homo sapiens (Human), UniProt O75173); assay: In vitro fluorescence (FRET-peptide) enzymatic assay of ADAMTS-4 activity; conditions: FRET peptide substrate 15 μM, 10 nM enzyme, 37° C. 3 hours
Description: (§1) A FRET (fluorescence resonance energy transfer) peptide was cleaved by recombinant ADAMTS-4 or ADAMTS-5 proteins into two separate fragments resulting in an increase of fluorescence signal which was quantified. The peptide was 5-FAM-[…](5-TAMRA)K-NH2, customized from ANASPEC. ADAMTS-4 recombinant protein (catalog #4307-AD) and ADAMTS-5 recombinant protein (catalog #2198-AD) were purchased from R&D Systems.
(§2) An assay buffer containing 50 mM HEPES pH 7.5, 100 mM NaCl, 5 mM CaCl2, 0.1% CHAPS and 5% Glycerol was prepared. A volume of 2.5 μl of compound in the assay buffer was dispensed to a 384-well plate, and 2.5 μl of ADAMTS-4 or ADAMTS-5 protein (final concentration in the reaction was 10 nM) was added. The compounds and proteins were pre-incubated at room temperature for 15 minutes. Then, 5 μl of substrate was added to each well. The final substrate concentrations for ADAMTS-4 and ADAMTS-5 were 15 μM and 8 μM, respectively. The fluorescence signal in each well was determined, after incubation at 37° C. for 3 hours, on a TECAN plate reader (Excitation, 490 nm; Emission, 520 nm).
(§3) The data was inputted into GraphPad Prism, and the IC50 values were calculated using function “log (inhibitor) vs. response—Variable slope (four parameters)”. (See Table 1)

[2] = molecular target: T1, ADAMTS-5 recombinant protein (Homo sapiens (Human), UniProt Q9UNA0); assay: In vitro fluorescence (FRET-peptide) enzymatic assay of ADAMTS-5 activity; conditions: FRET peptide substrate 8 μM, 10 nM enzyme, 37° C. 3 hours
T1 sequence (Q9UNA0 262-622): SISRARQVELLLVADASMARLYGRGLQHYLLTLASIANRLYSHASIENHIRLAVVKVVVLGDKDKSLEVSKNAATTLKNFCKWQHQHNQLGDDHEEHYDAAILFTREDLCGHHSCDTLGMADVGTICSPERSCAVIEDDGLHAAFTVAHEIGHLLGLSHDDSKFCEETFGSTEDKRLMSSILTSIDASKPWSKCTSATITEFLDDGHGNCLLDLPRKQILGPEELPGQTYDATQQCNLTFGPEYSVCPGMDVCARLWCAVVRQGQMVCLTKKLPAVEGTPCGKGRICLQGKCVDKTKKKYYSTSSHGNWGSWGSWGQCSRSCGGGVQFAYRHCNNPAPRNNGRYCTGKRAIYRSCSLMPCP
Description: as §1, §2, §3

[3] = molecular target: T1, ADAMTS-5 recombinant protein; assay: In vitro ELISA of ADAMTS-5 activity (Aggrecan-IGD enzymatic assay); conditions: aggrecan-IGD substrate, ARGSVIL-peptide ELISA, 37° C. 45 minutes
Description: In this assay, the enzymatic activity of recombinant ADAMTS-5 protein (catalog #2198-AD, R&D Systems) was assayed with a protein substrate, the aggrecan IGD protein. The aggrecan IGD protein is a polypeptide connecting human aggrecan globular domains 1 and 2 (T331-G458) expressed in E. Coli with a C-terminal His-tag (catalog #30411000, BIOTEZ). The enzymatic product ARGSVIL-peptide was detected using an ELISA kit from BioTEZ (catalog #30510111).
An assay buffer containing 50 mM HEPES pH 7.5, 100 mM NaCl, 5 mM CaCl2), 0.1% CHAPS and 5% Glycerol was prepared. Recombinant ADAMTS-5 protein was diluted to 0.3 nM in the assay buffer. Ten μl of […] and 10 μl of compound solution was transferred to each well of a 96-well plate and incubated at room temperature for 15 minutes. Substrate aggrecan-IGD was diluted to 100 nM with the assay buffer and 20 μl was added to each well. The plate was incubated at 37° C. for 45 minutes. After incubation, the newly generated epitope ARGSVIL-peptides were measured using the Aggrecanase Activity ELISA Assay Kit following the manufacturer's instructions. Then, 100 μl of stop solution was added and the absorbance of each well was read at 450 nm, using […] as reference on a TECAN plate reader.
A standard curve of the ELISA assay was generated in GraphPad Prism using Sigmoidal 4PL function and the corresponding peptide concentrations were calculated based on the standard curve. The IC50 values were calculated using function “log (inhibitor) vs. response—Variable slope (four parameters)”. (See Table 2).

Chain of ADAMTS-4 recombinant protein (O75173 213-685): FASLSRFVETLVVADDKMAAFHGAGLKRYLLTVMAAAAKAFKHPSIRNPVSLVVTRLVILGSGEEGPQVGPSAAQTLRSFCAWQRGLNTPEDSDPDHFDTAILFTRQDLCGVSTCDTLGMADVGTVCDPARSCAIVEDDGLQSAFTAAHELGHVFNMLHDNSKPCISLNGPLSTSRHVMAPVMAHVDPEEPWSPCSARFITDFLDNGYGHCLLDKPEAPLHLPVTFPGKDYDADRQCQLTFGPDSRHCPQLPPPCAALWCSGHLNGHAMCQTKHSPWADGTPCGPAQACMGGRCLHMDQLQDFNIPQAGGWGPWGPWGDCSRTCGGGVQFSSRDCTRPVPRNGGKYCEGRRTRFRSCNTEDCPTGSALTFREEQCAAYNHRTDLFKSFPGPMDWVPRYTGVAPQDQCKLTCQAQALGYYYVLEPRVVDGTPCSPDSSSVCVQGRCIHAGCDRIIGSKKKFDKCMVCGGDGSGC

Compound	IC50 [1] [nM]	IC50 [2] [nM]	IC50 [3] [nM]
O=C1NC(=O)[C@](CCC(=O)N2Cc3ccccc3C2)(C2CC2)N1 [Example 11, (S)-5-cyclopropyl-5-(3-(isoindolin-2-yl)-3-oxopropyl)imidazolidine-2,4-dione]	110	410	560
CC(C[C@@]1(C2CC2)NC(=O)NC1=O)C(=O)N1Cc2ccc(C(F)(F)F)cc2C1 (stereo partly drawn) [Example 29, (5S)-5-cyclopropyl-5-(2-methyl-3-oxo-3-(5-(trifluoromethyl)isoindolin-2-yl)propyl)imidazolidine-2,4-dione]	14	22	56
COc1cc2c(cc1Cl)CN(C(=O)C(C)C[C@@]1(C3CC3)NC(=O)NC1=O)C2 (stereo partly drawn) [Example 36-1, (5S)-5-(3-(5-chloro-6-methoxyisoindolin-2-yl)-2-methyl-3-oxopropyl)-5-cyclopropylimidazolidine-2,4-dione]	21	15	36
O=C1NC(=O)[C@](CCC(=O)N2Cc3cc(F)c(C(F)(F)F)cc3C2)(C2CC2)N1 [Example 39, (S)-5-cyclopropyl-5-(3-(5-fluoro-6-(trifluoromethyl)isoindolin-2-yl)-3-oxopropyl)imidazolidine-2,4-dione]	110	62	65
CC(C)C(C[C@@]1(C2CC2)NC(=O)NC1=O)C(=O)N1Cc2ccc(C(F)(F)F)cc2C1 (stereo partly drawn) [Example 49-2, (5S)-5-cyclopropyl-5-(3-methyl-2-(5-(trifluoromethyl)isoindoline-2-carbonyl)butyl)imidazolidine-2,4-dione]	15	20	55
O=C1NC(=O)C(CCC(=O)N2Cc3cc(Cl)c(Cl)cc3C2)(c2ccccn2)N1 (stereo not drawn) [Example 61, 5-(3-(5,6-dichloroisoindolin-2-yl)-3-oxopropyl)-5-(pyridin-2-yl)imidazolidine-2,4-dione]	40	42	72
Cn1ccnc1C1(CCC(=O)N2Cc3ccc(C(F)(F)F)cc3C2)NC(=O)NC1=O (stereo not drawn) [Example 62, 5-(1-methyl-1H-imidazol-2-yl)-5-(3-oxo-3-(5-(trifluoromethyl)isoindolin-2-yl)propyl)imidazolidine-2,4-dione]	100	89	290
O=C1NC(=O)C(CC(COCc2ccccc2)C(=O)N2Cc3ccc(C(F)(F)F)cc3C2)(C2CC2)N1 (stereo not drawn) [Example 65, 5-(2-((benzyloxy)methyl)-3-oxo-3-(5-(trifluoromethyl)isoindolin-2-yl)propyl)-5-cyclopropylimidazolidine-2,4-dione]	16	21	31
Cn1ccnc1C1(CCC(=O)N2Cc3cc(Cl)c(C(F)(F)F)cc3C2)NC(=O)NC1=O (stereo not drawn) [Example 73, 5-(3-(5-chloro-6-(trifluoromethyl)isoindolin-2-yl)-3-oxopropyl)-5-(1-methyl-1H-imidazol-2-yl)imidazolidine-2,4-dione]	61	27	47
Cc1cc(C2(CCC(=O)N3Cc4cc(Cl)c(C(F)(F)F)cc4C3)NC(=O)NC2=O)no1 (stereo not drawn) [Example 75, 5-(3-(5-chloro-6-(trifluoromethyl)isoindolin-2-yl)-3-oxopropyl)-5-(5-methylisoxazol-3-yl)imidazolidine-2,4-dione]	120	75	110
Cc1cc(C2(CCC(=O)N3Cc4cc(Cl)c(C(F)(F)F)cc4C3)NC(=O)NC2=O)n[nH]1 (stereo not drawn) [Example 78, 5-(3-(5-chloro-6-(trifluoromethyl)isoindolin-2-yl)-3-oxopropyl)-5-(5-methyl-1H-pyrazol-3-yl)imidazolidine-2,4-dione]	160	57	76
O=C1NC(=O)C(CCC(=O)N2Cc3cc(Cl)c(C(F)(F)F)cc3C2)(c2ncccn2)N1 (stereo not drawn) [Example 79, 5-(3-(5-chloro-6-(trifluoromethyl)isoindolin-2-yl)-3-oxopropyl)-5-(pyrimidin-2-yl)imidazolidine-2,4-dione]	250	110	210

Other lines, results leading:

IC50 [1] [nM]	IC50 [2] [nM]	IC50 [3] [nM]	Compound
51	61	140	CC1CN(C(=O)CC[C@@]2(C3CC3)NC(=O)NC2=O)CCc2ccc(F)cc21 (stereo partly drawn) [Example 22, (5S)-5-cyclopropyl-5-(3-(8-fluoro-1-methyl-1,2,4,5-tetrahydro-3H-benzo[d]azepin-3-y1)-3-oxopropyl)imidazolidine-2,4-dione]
120	360	840	COc1ccc2c(c1)CN(C(=O)CC[C@@]1(C3CC3)NC(=O)NC1=O)C2 [Example 24, (S)-5-cyclopropyl-5-(3-(5-methoxyisoindolin-2-yl)-3-oxopropyl)imidazolidine-2,4-dione]
230	110	170	COc1cc2c(cc1Cl)CN(C(=O)CC[C@@]1(C3CC3)NC(=O)NC1=O)C2 [Example 35, (S)-5-(3-(5-chloro-6-methoxyisoindolin-2-yl)-3-oxopropyl)-5-cyclopropylimidazolidine-2,4-dione]
5	13	16	CC1CN(C(=O)CC[C@@]2(C3CC3)NC(=O)NC2=O)CCc2cc(Cl)c(Cl)cc21 (stereo partly drawn) [Example 37, (S)-5-cyclopropyl-5-(3-(7,8-dichloro-1-methyl-1,2,4,5-tetrahydro-3H-benzo [d]azepin-3-yl)-3-oxopropyl)imidazolidine-2,4-dione]
62	31	29	CC1CN(C(=O)CC[C@@]2(C3CC3)NC(=O)NC2=O)CCc2ccc(Cl)c(Cl)c21 (stereo partly drawn) [Example 38, (S)-5-cyclopropyl-5-(3-(8,9-dichloro-1-methyl-1,2,4,5-tetrahydro-3H-benzo [d]azepin-3-yl)-3-oxopropyl)imidazolidine-2,4-dione]
36	21	18	CC1c2cc(C(F)(F)F)c(Cl)cc2CN1C(=O)CC[C@@]1(C2CC2)NC(=O)NC1=O (stereo partly drawn) [Example 41, (5S)-5-(3-(5-chloro-1-methyl-6-(trifluoromethyl)isoindolin-2-yl)-3-oxopropyl)-5-cyclopropylimidazolidine-2,4-dione]
11	110	200	Nc1cc2c(cc1Cl)CN(C(=O)CC[C@@]1(C3CC3)NC(=O)NC1=O)C2 [Example 54, (S)-5-(3-(5-amino-6-chloroisoindolin-2-yl)-3-oxopropyl)-5-cyclopropylimidazolidine-2,4-dione]
43	130	190	Cc1cc2c(cc1Cl)CN(C(=O)CC[C@@]1(C3CC3)NC(=O)NC1=O)C2 [Example 57, (S)-5-(3-(5-chloro-6-methylisoindolin-2-yl)-3-oxopropyl)-5-cyclopropylimidazolidine-2,4-dione]
43	52	83	CC1c2cc(Cl)c(Cl)cc2CN1C(=O)CC[C@@]1(C2CC2)NC(=O)NC1=O (stereo partly drawn) [Example 66, (5S)-5-cyclopropyl-5-(3-(5,6-dichloro-1-methylisoindolin-2-yl)-3-oxopropyl)imidazolidine-2,4-dione]
68	40	47	[2H]C1([2H])c2cc(Cl)c(Cl)cc2C(C)N1C(=O)CC[C@@]1(C2CC2)NC(=O)NC1=O (stereo partly drawn) [Example 69, (5S)-5-cyclopropyl-5-(3-(5,6-dichloro-1-methylisoindolin-2-yl-3,3-d2)-3-oxopropyl)imidazolidine-2,4-dione]
54	26	29	[2H]C1([2H])c2cc(Cl)c(C(F)(F)F)cc2C(C)N1C(=O)CC[C@@]1(C2CC2)NC(=O)NC1=O (stereo partly drawn) [Example 71, (5S)-5-(3-(5-chloro-1-methyl-6-(trifluoromethyl)isoindolin-2-yl-3,3-d2)-3-oxopropyl)-5-cyclopropylimidazolidine-2,4-dione]
